Data published in PMC5301252, “A new approach to quantification of mAb aggregates using peptide affinity probes” (Scientific Reports, 2017).

Legend:
[1] = test system: control non-aggregated NISTmAb; assay: Phage ELISA, binding to control NISTmAb; conditions: phage clone displaying the peptide; 2 hours, room temperature; absorbance 450 nm; three analytical replicates
Experimental: (§1) In the second step, a sample of the cross-linked NISTmAb was used as bait to screen a Ph.D.−12 phage display peptide library. The bait represents a mixture of monomer and cross-linked aggregated NISTmAb; this was also the only occasion when cross-linked sample was used. Phage display panning was performed in a subtractive manner. The library was initially depleted with control non-aggregated NISTmAb using three iterative cycles. The unbound phage was then screened on cross-linked NISTmAb aggregates, again using three iterative cycles of phage binding, elution, and amplification. After these rounds of panning, the single phage plaques were randomly picked up and amplified, and phage DNA was submitted for sequencing. In parallel, the ability to bind NISTmAb aggregates was evaluated using phage enzyme-linked immunosorbent assay (ELISA) for all selected phage clones. […] Clones #1 and #4 show respectively 9-fold and 7-fold better binding toward aggregated NISTmAb, compared to their binding toward control non-aggregated NISTmAb. […]
(§2) To assess the binding ability of the selected phages toward NISTmAb aggregates, 1 × 10^10 pfu of P02-C06 phage was incubated with 50 μg of NISTmAb aggregates at room temperature for 2 hours. […] Tetramethybezidine substrate reagent (eBioscience, San Diego, CA) was subsequently added and absorbance was read at 450 nm.

[2] = test system: NISTmAb aggregates generated by agitation; assay: Phage ELISA, binding to aggregated NISTmAb versus control NISTmAb; conditions: phage clone displaying the peptide, 2 hours, room temperature
Experimental: as §1, §2

affinity toward non-aggregated NISTmAb, compared to other clones [1]: lowest
fold better binding toward aggregated NISTmAb compared to control non-aggregated NISTmAb ([2]; 1 × 10^10 pfu, HRP anti-M13, absorbance 450 nm, three analytical replicates): 7 -fold
Sequence: GNNPLHVHHDKRGGG [P02-C04]
binding preference ([2]; aggregated vs control NISTmAb, absorbance 450 nm): preferential binding to NISTmAb aggregates
